ChEMBL document CHEMBL1140900, “Synthesis, biological evaluation, and docking studies of N-substituted acetamidines as selective inhibitors of inducible nitric oxide synthase” (J Med Chem, 2009)

What was measured:
[1] = target: Nitric oxide synthase, inducible (Homo sapiens, UniProt P35228); assay: Inhibition of iNOS in LPS treated human THP1 cell homogenate assessed as conversion of L-[2,3-3H]arginine to L-[2,3-3H]citrulline pre-incubated 1 hr before LPS challenge by whole cell assay; type: cell-based, THP-1
Sequence of Nitric oxide synthase, inducible (P35228 whole entry): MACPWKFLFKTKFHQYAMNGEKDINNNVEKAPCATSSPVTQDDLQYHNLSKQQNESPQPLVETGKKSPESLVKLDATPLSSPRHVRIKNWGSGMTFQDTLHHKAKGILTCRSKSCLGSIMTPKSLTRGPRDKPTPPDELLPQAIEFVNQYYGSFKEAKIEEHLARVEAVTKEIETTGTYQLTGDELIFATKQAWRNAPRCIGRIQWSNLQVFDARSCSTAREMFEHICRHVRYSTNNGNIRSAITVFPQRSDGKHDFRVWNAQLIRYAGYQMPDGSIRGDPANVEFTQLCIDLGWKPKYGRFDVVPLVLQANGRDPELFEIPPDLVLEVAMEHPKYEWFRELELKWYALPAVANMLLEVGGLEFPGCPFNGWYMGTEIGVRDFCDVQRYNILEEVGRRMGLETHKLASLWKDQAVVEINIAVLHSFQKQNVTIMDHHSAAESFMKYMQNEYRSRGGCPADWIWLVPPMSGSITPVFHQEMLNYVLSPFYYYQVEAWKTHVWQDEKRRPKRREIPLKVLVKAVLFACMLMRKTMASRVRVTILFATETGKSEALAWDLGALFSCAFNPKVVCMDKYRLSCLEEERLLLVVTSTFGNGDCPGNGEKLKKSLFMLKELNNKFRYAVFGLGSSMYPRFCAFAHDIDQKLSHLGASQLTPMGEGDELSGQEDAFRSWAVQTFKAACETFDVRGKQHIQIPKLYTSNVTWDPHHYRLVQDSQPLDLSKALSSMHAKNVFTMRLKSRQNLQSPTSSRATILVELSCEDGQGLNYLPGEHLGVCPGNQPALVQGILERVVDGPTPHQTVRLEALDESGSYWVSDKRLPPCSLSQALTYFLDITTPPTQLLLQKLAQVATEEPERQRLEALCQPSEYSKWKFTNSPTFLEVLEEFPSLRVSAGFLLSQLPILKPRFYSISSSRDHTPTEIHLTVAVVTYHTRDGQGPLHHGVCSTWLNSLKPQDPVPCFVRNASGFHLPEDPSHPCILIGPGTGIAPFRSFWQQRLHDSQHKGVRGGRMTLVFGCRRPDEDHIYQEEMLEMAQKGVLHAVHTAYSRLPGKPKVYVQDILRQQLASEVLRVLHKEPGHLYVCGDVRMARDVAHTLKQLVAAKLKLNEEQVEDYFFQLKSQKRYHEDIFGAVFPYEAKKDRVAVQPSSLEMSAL

Nitric oxide synthase 3 = target: T1, Nitric oxide synthase 3 (Homo sapiens, UniProt P29474); assay: Inhibition of eNOS in LPS treated human THP1 cell homogenate assessed as conversion of L-[2,3-3H]arginine to L-[2,3-3H]citrulline pre-incubated 1 hr before LPS challenge by whole cell assay; type: cell-based, THP-1
T1 sequence (P29474 whole entry): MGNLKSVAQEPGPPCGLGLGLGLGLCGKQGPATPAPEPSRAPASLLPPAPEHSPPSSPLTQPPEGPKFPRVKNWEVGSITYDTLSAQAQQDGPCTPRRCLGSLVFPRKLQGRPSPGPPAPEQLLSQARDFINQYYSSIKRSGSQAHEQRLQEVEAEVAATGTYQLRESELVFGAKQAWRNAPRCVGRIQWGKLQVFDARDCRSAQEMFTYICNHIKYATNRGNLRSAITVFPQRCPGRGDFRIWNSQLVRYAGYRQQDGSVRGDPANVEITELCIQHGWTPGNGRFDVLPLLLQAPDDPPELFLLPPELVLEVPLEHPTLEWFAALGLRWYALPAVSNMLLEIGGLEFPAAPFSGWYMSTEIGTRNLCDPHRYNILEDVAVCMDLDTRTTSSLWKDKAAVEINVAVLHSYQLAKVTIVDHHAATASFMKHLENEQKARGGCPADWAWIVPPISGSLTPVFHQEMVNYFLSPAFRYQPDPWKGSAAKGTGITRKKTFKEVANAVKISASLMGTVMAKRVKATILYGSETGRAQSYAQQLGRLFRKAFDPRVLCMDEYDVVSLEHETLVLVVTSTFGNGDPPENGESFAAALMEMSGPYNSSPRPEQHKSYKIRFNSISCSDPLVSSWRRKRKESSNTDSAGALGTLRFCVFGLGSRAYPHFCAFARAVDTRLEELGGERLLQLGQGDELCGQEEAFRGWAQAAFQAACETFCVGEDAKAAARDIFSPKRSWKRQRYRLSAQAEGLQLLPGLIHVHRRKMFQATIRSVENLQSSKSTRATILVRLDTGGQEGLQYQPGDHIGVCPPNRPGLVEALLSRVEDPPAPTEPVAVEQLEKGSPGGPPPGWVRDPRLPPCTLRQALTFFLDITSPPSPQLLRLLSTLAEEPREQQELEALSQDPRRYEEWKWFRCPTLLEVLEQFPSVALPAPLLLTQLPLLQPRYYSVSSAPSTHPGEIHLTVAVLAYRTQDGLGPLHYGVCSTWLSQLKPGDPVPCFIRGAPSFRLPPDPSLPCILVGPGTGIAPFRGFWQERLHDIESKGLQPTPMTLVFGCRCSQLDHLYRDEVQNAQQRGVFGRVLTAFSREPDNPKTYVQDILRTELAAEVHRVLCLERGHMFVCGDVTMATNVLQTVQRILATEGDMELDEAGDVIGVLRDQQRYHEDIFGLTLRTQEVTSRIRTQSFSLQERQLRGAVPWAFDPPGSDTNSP

Homo sapiens = species on record: Homo sapiens; assay: Selectivity ratio of IC50 for human eNOS to IC50 for human iNOS

Structure (SMILES) | IC50 [1] [µM] | IC50 (Nitric oxide synthase 3) [µM] | Ratio IC50 (Homo sapiens)
CCOC(=O)N1CCC(NC(C)=N)CC1 | 0.25 | 90 | 360
CC(=N)NCc1ccccc1 | 0.2 | 350 | 1750
CCC(NC(C)=N)c1ccccc1 (racemic) | 0.25 | 80 | 320
CC(=N)N[C@@H](C)c1ccccc1 | 0.45 | 300 | 666

Further lines, results first:

IC50 [1] [µM] | IC50 (Nitric oxide synthase 3) [µM] | Ratio IC50 (Homo sapiens) | Structure (SMILES)
0.5 | 300 | 600 | CC(=N)NCc1cccc(CNS(=O)(=O)c2ccc(C)cc2)c1
0.35 | 20 | 57 | CC(=N)NCc1cccc(CNCc2ccncc2)c1
